For 24 compounds, IC50 results are on record in patent US11427567B2, “Imidazolyl pyrimidinylamine compounds as CDK2 inhibitors” (Incyte Corporation, priority 2019, dated 2022).

For orientation: IC50 means the point on the concentration scale where inhibition reaches its midpoint.

This test addresses CDK2/Cyclin E1 (Homo sapiens (Human), UniProt P24941). Nature of the test: CDK2/Cyclin E1 HTRF enzyme activity assay (Example A). The format is biochemical. Particulars: 1 mM ATP. On the procedure:
Assays were conducted in white 384-well polystyrene plates in a final reaction volume of 8 μL. […] HTRF signals were read after 1 hour at room temperature on a PHERAstar FS plate reader (BMG Labtech). Data was analyzed with IDBS XLFit and GraphPad Prism 5.0 software using a three or four parameter dose response curve to determine IC50 for each compound.

Compound `CC(C)NCc1ccc(-n2cnc(-c3nc(N[C@@H]4CCN(S(C)(=O)=O)C[C@H]4F)ncc3C(F)(F)F)c2)c(Cl)c1` [Example 400, 4-(1-(2-Chloro-4-((isopropylamino)methyl)phenyl)-1H-imidazol-4-yl)-N-((3R,4R)-3-fluoro-1-(methylsulfonyl)piperidin-4-yl)-5-(trifluoromethyl)pyrimidin-2-amine] had an IC50 not above 50 nM.

As for `CCNCc1ccc(-n2cnc(-c3nc(N[C@@H]4CCN(S(C)(=O)=O)C[C@H]4F)ncc3C(F)(F)F)c2)c(Cl)c1` [Example 401], the IC50 was not above 50 nM.

The compound `C[C@@]1(O)CCN(Cc2cc(F)c(-n3cnc(-c4nc(N[C@@H]5CCN(S(C)(=O)=O)C[C@H]5F)ncc4C(F)(F)F)c3)c(Cl)c2)C1` [Example 402, (R)-1-(3-Chloro-5-fluoro-4-(4-(2-(((3R,4R)-3-fluoro-1-(methylsulfonyl)piperidin-4-yl)amino)-5-(trifluoromethyl)pyrimidin-4-yl)-1H-imidazol-1-yl)benzyl)-3-methylpyrrolidin-3-ol] returned an IC50 not above 50 nM.

With `CCN1CCN(Cc2cc(F)c(-n3cnc(-c4nc(N[C@@H]5CCN(S(C)(=O)=O)C[C@H]5F)ncc4C(F)(F)F)c3)c(Cl)c2)CC1` [Example 403, 4-(1-(2-Chloro-4-((4-ethylpiperazin-1-yl)methyl)-6-fluorophenyl)-1H-imidazol-4-yl)-N-((3R,4R)-3-fluoro-1-(methylsulfonyl)piperidin-4-yl)-5-(trifluoromethyl)pyrimidin-2-amine], the IC50 was not above 50 nM.

`CS(=O)(=O)N1CC[C@@H](Nc2ncc(C(F)(F)F)c(-c3cn(-c4c(F)cc(CN5CCC5)cc4Cl)cn3)n2)[C@H](F)C1` [Example 404, 4-(1-(4-(Azetidin-1-ylmethyl)-2-chloro-6-fluorophenyl)-1H-imidazol-4-yl)-N-((3R,4R)-3-fluoro-1-(methylsulfonyl)piperidin-4-yl)-5-(trifluoromethyl)pyrimidin-2-amine] showed an IC50 not above 50 nM.

In turn, `CC(C)NCc1cc(F)c(-n2cnc(-c3nc(N[C@@H]4CCN(S(C)(=O)=O)C[C@H]4F)ncc3C(F)(F)F)c2)c(Cl)c1` [Example 405, 4-(1-(2-Chloro-6-fluoro-4-((isopropylamino)methyl)phenyl)-1H-imidazol-4-yl)-N-((3R,4R)-3-fluoro-1-(methylsulfonyl)piperidin-4-yl)-5-(trifluoromethyl)pyrimidin-2-amine] showed an IC50 not above 50 nM.

`CCNCc1cc(F)c(-n2cnc(-c3nc(N[C@@H]4CCN(S(C)(=O)=O)C[C@H]4F)ncc3C(F)(F)F)c2)c(Cl)c1` [Example 406, 4-(1-(2-Chloro-4-((ethylamino)methyl)-6-fluorophenyl)-1H-imidazol-4-yl)-N-((3R,4R)-3-fluoro-1-(methylsulfonyl)piperidin-4-yl)-5-(trifluoromethyl)pyrimidin-2-amine] gave an IC50 not above 50 nM.

As for `Cc1nc(-c2nc(N[C@H]3CCN(S(C)(=O)=O)C[C@H]3F)ncc2C(F)(F)F)cn1-c1ccc(CN2CCCC2)cc1F` [Example 407, N-((3R,4S)-3-Fluoro-1-(methylsulfonyl)piperidin-4-yl)-4-(1-(2-fluoro-4-(pyrrolidin-1-ylmethyl)phenyl)-2-methyl-1H-imidazol-4-yl)-5-(trifluoromethyl)pyrimidin-2-amine], the IC50 was not above 50 nM.

For `Cc1nc(-c2nc(N[C@H]3CCN(S(C)(=O)=O)C[C@H]3F)ncc2C(F)(F)F)cn1-c1ccc(CNC2CC2)cc1F` [Example 408], the IC50 was not above 50 nM.

As for `CN1CCN(Cc2cc(F)c(-n3cnc(-c4nc(NC5CCN(S(C)(=O)=O)CC5)ncc4C(F)(F)F)c3)c(F)c2)CC1=O` [Example 409, 4-(3,5-Difluoro-4-(4-(2-((1-(methylsulfonyl)piperidin-4-yl)amino)-5-(trifluoromethyl)pyrimidin-4-yl)-1H-imidazol-1-yl)benzyl)-1-methylpiperazin-2-one], the IC50 was not above 50 nM.

As to `C[C@]1(O)CCN(Cc2ccc(-n3cnc(-c4nc(N[C@@H]5CCN(S(C)(=O)=O)C[C@H]5F)ncc4C(F)(F)F)c3)c(Cl)c2)C1` [Example 410, (S)-1-(3-Chloro-4-(4-(2-(((3R,4R)-3-fluoro-1-(methylsulfonyl)piperidin-4-yl)amino)-5-(trifluoromethyl)pyrimidin-4-yl)-1H-imidazol-1-yl)benzyl)-3-methylpyrrolidin-3-ol], the IC50 was not above 50 nM.

For the compound `C[C@]1(O)CCN(Cc2ccc(-n3cnc(-c4nc(N[C@H]5CCN(S(C)(=O)=O)C[C@H]5F)ncc4C(F)(F)F)c3)c(Cl)c2)C1` [Example 412, (S)-1-(3-Chloro-4-(4-(2-(((3R,4S)-3-fluoro-1-(methylsulfonyl)piperidin-4-yl)amino)-5-(trifluoromethyl)pyrimidin-4-yl)-1H-imidazol-1-yl)benzyl)-3-methylpyrrolidin-3-ol], the IC50 is not above 50 nM.

`CCN(CC)C1CCN(c2ccc(-n3cc(-c4nc(NC5CCN(S(C)(=O)=O)CC5)ncc4C(F)(F)F)nc3C)c(F)c2)CC1` [Example 413, 4-(1-(4-(4-(Diethylamino)piperidin-1-yl)-2-fluorophenyl)-2-methyl-1H-imidazol-4-yl)-N-(1-(methylsulfonyl)piperidin-4-yl)-5-(trifluoromethyl)pyrimidin-2-amine] returned an IC50 not above 50 nM.

Consider `Cc1nc(-c2nc(NC3CCN(S(C)(=O)=O)CC3)ncc2C(F)(F)F)cn1-c1ccc(N2CCC(C)(N3CCCC3)CC2)cc1F` [Example 414, 4-(1-(2-Fluoro-4-(4-methyl-4-(pyrrolidin-1-yl)piperidin-1-yl)phenyl)-2-methyl-1H-imidazol-4-yl)-N-(1-(methylsulfonyl)piperidin-4-yl)-5-(trifluoromethyl)pyrimidin-2-amine], for which the half-maximal inhibitory concentration (IC50) was not above 50 nM.

Compound `Cc1nc(-c2nc(NC3CCN(S(C)(=O)=O)CC3)ncc2C(F)(F)F)cn1-c1ccc(N2CCC(N3CCN(C)CC3)CC2)cc1F` [Example 415, 4-(1-(2-Fluoro-4-(4-(4-methylpiperazin-1-yl)piperidin-1-yl)phenyl)-2-methyl-1H-imidazol-4-yl)-N-(1-(methylsulfonyl)piperidin-4-yl)-5-(trifluoromethyl)pyrimidin-2-amine] gave an IC50 not above 50 nM.

As for `Cc1nc(-c2nc(NC3CCN(S(C)(=O)=O)CC3)ncc2C(F)(F)F)cn1-c1ccc(CCN2CCC2)cc1F` [Example 416, 4-(1-(4-(2-(Azetidin-1-yl)ethyl)-2-fluorophenyl)-2-methyl-1H-imidazol-4-yl)-N-(1-(methylsulfonyl)piperidin-4-yl)-5-(trifluoromethyl)pyrimidin-2-amine], the IC50 was not above 50 nM.

`Cc1nc(-c2nc(NC3CCN(S(C)(=O)=O)CC3)ncc2C(F)(F)F)cn1-c1ccc(C2CN(C)C2)cc1F` [Example 417, 4-(1-(2-Fluoro-4-(1-methylazetidin-3-yl)phenyl)-2-methyl-1H-imidazol-4-yl)-N-(1-(methylsulfonyl)piperidin-4-yl)-5-(trifluoromethyl)pyrimidin-2-amine]: the IC50 was not above 50 nM.

For `CCN1CC(c2ccc(-n3cc(-c4nc(NC5CCN(S(C)(=O)=O)CC5)ncc4C(F)(F)F)nc3C)c(F)c2)C1` [Example 418, 4-(1-(4-(1-Ethylazetidin-3-yl)-2-fluorophenyl)-2-methyl-1H-imidazol-4-yl)-N-(1-(methylsulfonyl)piperidin-4-yl)-5-(trifluoromethyl)pyrimidin-2-amine], the IC50 was not above 50 nM.

Compound `Cc1nc(-c2nc(NC3CCN(S(C)(=O)=O)CC3)ncc2C(F)(F)F)cn1-c1ccc(C2CN(C[C@H](C)O)C2)cc1F` [Example 419, (S)-1-(3-(3-Fluoro-4-(2-methyl-4-(2-((1-(methylsulfonyl)piperidin-4-yl)amino)-5-(trifluoromethyl)pyrimidin-4-yl)-1H-imidazol-1-yl)phenyl)azetidin-1-yl)propan-2-ol] gave an IC50 not above 50 nM.

`Cc1nc(-c2nc(NC3CCN(S(C)(=O)=O)CC3)ncc2C(F)(F)F)cn1-c1ccc(C2CN(CCO)C2)cc1F` [Example 420, 2-(3-(3-Fluoro-4-(2-methyl-4-(2-((1-(methylsulfonyl)piperidin-4-yl)amino)-5-(trifluoromethyl)pyrimidin-4-yl)-1H-imidazol-1-yl)phenyl)azetidin-1-yl)ethan-1-ol] had an IC50 not above 50 nM.

For the compound `Cc1nc(-c2nc(NC3CCN(S(C)(=O)=O)CC3)ncc2C(F)(F)F)cn1-c1ccc(C2CN(C[C@@H](C)O)C2)cc1F` [Example 421, (R)-1-(3-(3-Fluoro-4-(2-methyl-4-(2-((1-(methylsulfonyl)piperidin-4-yl)amino)-5-(trifluoromethyl)pyrimidin-4-yl)-1H-imidazol-1-yl)phenyl)azetidin-1-yl)propan-2-ol], the IC50 is not above 50 nM.

In the case of `Cc1nc(-c2nc(NC3CCN(S(C)(=O)=O)CC3)ncc2C(F)(F)F)cn1-c1ccc(C2CN(CC3(O)CC3)C2)cc1F` [Example 422, 1-((3-(3-Fluoro-4-(2-methyl-4-(2-((1-(methylsulfonyl)piperidin-4-yl)amino)-5-(trifluoromethyl)pyrimidin-4-yl)-1H-imidazol-1-yl)phenyl)azetidin-1-yl)methyl)cyclopropan-1-ol], the IC50 is not above 50 nM.

For the compound `Cc1nc(-c2nc(NC3CCN(S(C)(=O)=O)CC3)ncc2C(F)(F)F)cn1-c1ccc(OCCN(C)C)cc1F` [Example 423, 4-(1-(4-(2-(Dimethylamino)ethoxy)-2-fluorophenyl)-2-methyl-1H-imidazol-4-yl)-N-(1-(methylsulfonyl)piperidin-4-yl)-5-(trifluoromethyl)pyrimidin-2-amine], the IC50 is not above 50 nM.

`Cc1nc(-c2nc(NC3CCN(S(C)(=O)=O)CC3)ncc2C(F)(F)F)cn1-c1ccc(OCCN2CCCC2)cc1F` [Example 424, 4-(1-(2-Fluoro-4-(2-(pyrrolidin-1-yl)ethoxy)phenyl)-2-methyl-1H-imidazol-4-yl)-N-(1-(mehtylsulfonyl)piperidin-4-yl)-5-(trifluoromethyl)pyrimidin-2-amine] yielded an IC50 not above 50 nM.
